{"source": "BindingDB's records for patent US9670214", "about": "(Dana-Farber Cancer Institute, 2017)", "key": {"[1]": {"target": "Non-specific protein-tyrosine kinase (Homo sapiens, UniProt A9UEZ6)", "sequence (A9UEZ6 whole entry)": "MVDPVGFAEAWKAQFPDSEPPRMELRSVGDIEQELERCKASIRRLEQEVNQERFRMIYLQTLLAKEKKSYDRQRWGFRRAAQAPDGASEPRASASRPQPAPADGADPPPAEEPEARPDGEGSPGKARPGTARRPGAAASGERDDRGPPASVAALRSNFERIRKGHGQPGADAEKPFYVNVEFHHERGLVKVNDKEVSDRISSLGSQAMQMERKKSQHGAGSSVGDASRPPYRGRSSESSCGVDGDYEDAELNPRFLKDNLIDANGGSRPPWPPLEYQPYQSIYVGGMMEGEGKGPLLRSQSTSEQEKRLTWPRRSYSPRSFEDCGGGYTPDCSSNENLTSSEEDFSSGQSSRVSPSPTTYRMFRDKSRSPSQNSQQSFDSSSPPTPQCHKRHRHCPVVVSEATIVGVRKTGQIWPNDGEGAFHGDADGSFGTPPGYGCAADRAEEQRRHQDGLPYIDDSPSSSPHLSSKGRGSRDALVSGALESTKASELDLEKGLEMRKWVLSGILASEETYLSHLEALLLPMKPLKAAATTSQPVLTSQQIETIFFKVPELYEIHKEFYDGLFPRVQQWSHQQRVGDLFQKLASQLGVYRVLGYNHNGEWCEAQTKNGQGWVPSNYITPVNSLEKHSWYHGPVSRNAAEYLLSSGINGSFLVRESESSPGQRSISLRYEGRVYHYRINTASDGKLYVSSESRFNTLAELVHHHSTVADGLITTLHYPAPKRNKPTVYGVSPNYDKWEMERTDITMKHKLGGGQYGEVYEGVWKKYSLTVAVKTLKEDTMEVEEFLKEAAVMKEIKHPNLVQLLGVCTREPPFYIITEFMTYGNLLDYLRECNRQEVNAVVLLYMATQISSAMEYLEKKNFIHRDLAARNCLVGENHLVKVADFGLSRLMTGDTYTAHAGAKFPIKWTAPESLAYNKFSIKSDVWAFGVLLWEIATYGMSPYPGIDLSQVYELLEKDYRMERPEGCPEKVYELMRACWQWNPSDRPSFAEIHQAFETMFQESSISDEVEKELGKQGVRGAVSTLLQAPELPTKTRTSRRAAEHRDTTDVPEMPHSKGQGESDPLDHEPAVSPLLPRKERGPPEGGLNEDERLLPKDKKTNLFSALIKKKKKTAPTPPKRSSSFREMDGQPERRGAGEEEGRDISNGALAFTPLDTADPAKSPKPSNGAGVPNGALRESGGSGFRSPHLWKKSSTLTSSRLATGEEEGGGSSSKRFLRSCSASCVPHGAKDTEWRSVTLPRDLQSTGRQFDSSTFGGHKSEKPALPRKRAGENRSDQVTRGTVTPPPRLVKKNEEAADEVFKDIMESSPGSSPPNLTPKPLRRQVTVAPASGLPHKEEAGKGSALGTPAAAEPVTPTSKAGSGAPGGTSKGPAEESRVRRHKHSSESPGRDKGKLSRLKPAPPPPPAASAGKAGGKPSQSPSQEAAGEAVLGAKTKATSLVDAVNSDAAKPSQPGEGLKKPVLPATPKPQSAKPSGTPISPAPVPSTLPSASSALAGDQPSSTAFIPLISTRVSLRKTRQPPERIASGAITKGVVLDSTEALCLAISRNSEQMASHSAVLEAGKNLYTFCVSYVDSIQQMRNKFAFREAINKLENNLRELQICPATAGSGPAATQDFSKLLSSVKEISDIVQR", "assay": "Kinase Assay", "conditions": "pH 7.5", "from_the_text": "(§1) Recombinant abl was expressed in Sf9 insect cells and purified as described above. Bcr-abl immune complexes were obtained with Ab-3 anti-abl monoclonal antibody (Oncogene Science) from Ba/F3.p210 lysates as previously described. […] (Calbiochem buffer and protocol). The reaction was stopped by addition of Laemmli buffer and the proteins were resolved by SDS-PAGE in a 4-20% gel. The phosphoproteins were visualized by autoradiography and the autophosphorylation quantitated using a phosphoimager (STORM, Molecular Devices)."}, "[2]": {"target": "Non-specific protein-tyrosine kinase [T818I] (Homo sapiens, UniProt A9UEZ6, T818I)", "sequence (A9UEZ6 as listed by the source T818I)": "as the sequence (A9UEZ6 whole entry) above, with T818I counted along it", "assay": "Kinase Assay", "conditions": "pH 7.5", "from_the_text": "as §1"}}}
{"molecule": "FC(F)(F)Oc1ccc(Nc2ncnc3c2cnn3Cc2cccnc2)cc1", "note": "[US9670214, TABLE 10.30]", "values": [{"measurement": "IC50", "setting": "[1]", "value": 0.03, "unit": "µM"}, {"measurement": "IC50", "setting": "[2]", "value": 0.6, "unit": "µM"}]}
